Measured values as given in ChEMBL document CHEMBL4765295, “Synthesis, pharmacological profile and 2D-QSAR studies of curcumin-amino acid conjugates as potential drug candidates” (Eur J Med Chem, 2020).
Values joined by “and” are separate entries in the source; they are usually repeats but may differ in a detail not shown here. Identical values can stand only once.

What was measured:
Rattus norvegicus [1] = test: Antiinflammatory activity in Wistar rat model of carrageenan-induced paw edema assessed as reduction in thickness of paw edema at 10 mg/kg, ip pretreated for 1 hr followed by carrageenan challenge and measured after 2 hrs (reference value: 2.06 +/-0.09 mm); type: functional; conditions: time 3 hrs
Splenocyte [2] = test: Immunomodulatory activity in Swiss albino mouse splenocytes assessed as cell viability at 10 uM by measuring stimulation index incubated for 72 hrs in presence of mitogenic stimulus phytohaemagglutinin by MTT assay (reference value: 1.00 +/- 0.24); type: functional
Rattus norvegicus [3] = test: Antiinflammatory activity in Wistar rat model of carrageenan-induced paw edema assessed as reduction in thickness of paw edema at 10 mg/kg, ip pretreated for 1 hr followed by carrageenan challenge and measured after 4 hrs (reference value: 1.40 +/-0.10 mm); type: functional; conditions: time 5 hrs
Peritoneal macrophage [4] = test: Antiinflammatory activity in […] mouse Peritoneal macrophages assessed as reduction in LPS-induced NO production by measuring reduction in stimulation index at 10 uM preincubated for 1 hr followed by LPS stimulation measured after 24 hrs by Griess method (reference value: 27.31 +/- 2.56 uM); type: functional; conditions: time 25 hrs
Peritoneal macrophage [5] = test: Antiinflammatory activity in […] mouse Peritoneal macrophages assessed as inhibition of LPS-induced NO production at 10 uM preincubated for 1 hr followed by LPS stimulation measured after 24 hrs by Griess method relative to control (reference value: 0.0 %); type: functional; parameters: scale not given: the % may be the effect or the level left; conditions: time 25 hrs
Rattus norvegicus [6] = test: Anti-inflammatory activity in Wistar rat assessed as inhibition of carrageenan-induced paw edema at 10 mg/kg, ip pretreated for 1 hr followed by carrageenan challenge and measured after 4 hr relative to control (reference value: 0.00 +/-0.4 %); type: functional; conditions: time 5 hrs
Streptococcus pyogenes = test: Antibacterial activity against Streptococcus pyogenes ATCC 19615 incubated for 18 hrs by agar dilution method; type: functional
Rattus norvegicus [7] = test: Antiinflammatory activity in Wistar rat model of carrageenan-induced paw edema assessed as reduction in thickness of paw edema at 10 mg/kg, ip pretreated for 1 hr followed by carrageenan challenge and measured after 1 hr (reference value: 2.41 +/-0.05 mm); type: functional; conditions: time 1 hr after carrageenan
Rattus norvegicus [8] = test: Anti-inflammatory activity in Wistar rat assessed as inhibition of carrageenan-induced paw edema at 10 mg/kg, ip pretreated for 1 hr followed by carrageenan challenge and measured after 4 hr relative to indomethacin; type: functional; conditions: time 5 hrs
Splenocyte [9] = test: Immunomodulatory activity in Swiss albino mouse splenocytes assessed as cell viability at 10 uM by measuring inhibition of stimulation index incubated for 72 hrs in presence of mitogenic stimulus phytohaemagglutinin by MTT assay relative to indomethacin; type: functional; conditions: read-out: Activity
Candida albicans = test: Antifungal activity against Candida albicans incubated for 18 to 24 hrs by CLSI method; type: functional; conditions: time 18-24 hrs
Rattus norvegicus [10] = test: Antiinflammatory activity in Wistar rat model of carrageenan-induced paw edema assessed as reduction in thickness of paw edema at 10 mg/kg, ip pretreated for 1 hr followed by carrageenan challenge and measured after 3 hrs (reference value: 1.79 +/-0.07 mm); type: functional; conditions: time 4 hrs
Rattus norvegicus [11] = test: Anti-inflammatory activity in Wistar rat assessed as inhibition of carrageenan-induced paw edema at 10 mg/kg, ip pretreated for 1 hr followed by carrageenan challenge and measured after 24 hr relative to control (reference value: 0.00 +/-0.3 %); type: functional; conditions: time 25 hrs
Rattus norvegicus [12] = test: Anti-inflammatory activity in Wistar rat assessed as inhibition of carrageenan-induced paw edema at 10 mg/kg, ip pretreated for 1 hr followed by carrageenan challenge and measured after 2 hr relative to control (reference value: 0.00 +/-0.03 %); type: functional; conditions: time 3 hrs
Pseudomonas aeruginosa = test: Antibacterial activity against Pseudomonas aeruginosa ATCC 27853 incubated for 18 hrs by agar dilution assay; type: functional
Rattus norvegicus [13] = test: Anti-inflammatory activity in Wistar rat assessed as inhibition of carrageenan-induced paw edema at 10 mg/kg, ip pretreated for 1 hr followed by carrageenan challenge and measured after 3 hr relative to control (reference value: 0.00 +/-0.1 %); type: functional; conditions: time 4 hrs
Rattus norvegicus [14] = test: Antiinflammatory activity in Wistar rat model of carrageenan-induced paw edema assessed as reduction in thickness of paw edema at 10 mg/kg, ip pretreated for 1 hr followed by carrageenan challenge and measured after 24 hrs (reference value: 0.83 +/-0.08 mm); type: functional; conditions: time 25 hrs
Staphylococcus aureus = test: Antibacterial activity against Staphylococcus aureus ATCC 25923 incubated for 18 hrs by agar dilution method; type: functional
Salmonella typhimurium = test: Antibacterial activity against Salmonella typhimurium ATCC 19430 incubated for 18 hrs by agar dilution assay; type: functional, Salmonella enterica subsp. enterica serovar Typhimurium; conditions: Salmonella enterica
Rattus norvegicus [15] = test: Anti-inflammatory activity in Wistar rat assessed as inhibition of carrageenan-induced paw edema at 10 mg/kg, ip pretreated for 1 hr followed by carrageenan challenge and measured after 1 hr relative to control (reference value: 0.00 +/-0.02 %); type: functional; conditions: time 2 hrs

MIC (Streptococcus pyogenes) | MIC (Candida albicans) | MIC (Pseudomonas aeruginosa) | MIC (Staphylococcus aureus) | MIC (Salmonella typhimurium) | SMILES | Activity (Rattus norvegicus [1]) [mm] | Activity_index (Splenocyte [2]) | Activity (Rattus norvegicus [3]) [mm] | Activity (Peritoneal macrophage [4]) [µM] | Activity (Peritoneal macrophage [5]) [%] | inhibition in vivo at 10 mg/kg (Rattus norvegicus [6]) [%] | Activity (Rattus norvegicus [7]) [mm] | inhibition in vivo at 10 mg/kg (Rattus norvegicus [8]) [%] | viability at 10 µM (Splenocyte [9]) [%] | Activity (Rattus norvegicus [10]) [mm] | inhibition in vivo at 10 mg/kg (Rattus norvegicus [11]) [%] | inhibition in vivo at 10 mg/kg (Rattus norvegicus [12]) [%] | inhibition in vivo at 10 mg/kg (Rattus norvegicus [13]) [%] | Activity (Rattus norvegicus [14]) [mm] | inhibition in vivo at 10 mg/kg (Rattus norvegicus [15]) [%]
0.5 µg/mL and 0.494 µM | 0.5 µg/mL and 0.494 µM | 0.5 µg/mL and 0.494 µM | 0.25 µg/mL and 0.247 µM | 0.5 µg/mL and 0.494 µM | COc1cc(/C=C/C(=O)/C=C(O)/C=C/c2ccc(OC(=O)[C@@H](NC(=O)OCC3c4ccccc4-c4ccccc43)C(C)C)c(OC)c2)ccc1OC(=O)[C@@H](NC(=O)OCC1c2ccccc2-c2ccccc21)C(C)C | 1.05 | 2.55 | 0.66 | 23.91 | 12.46 | 53 | 1.88 | 61 | 47.5 | 0.9 | 47 | 49 | 50 | 0.44 | 22
0.125 µg/mL and 0.113 µM | 0.5 µg/mL and 0.452 µM | 2 µg/mL and 1.81 µM | 0.25 µg/mL and 0.226 µM | 0.25 µg/mL and 0.226 µM | COc1cc(/C=C/C(=O)/C=C(O)/C=C/c2ccc(OC(=O)[C@H](Cc3ccccc3)NC(=O)OCC3c4ccccc4-c4ccccc43)c(OC)c2)ccc1OC(=O)[C@H](Cc1ccccc1)NC(=O)OCC1c2ccccc2-c2ccccc21 | 1.22 | 1.78 | 0.56 | 18.84 | 31.01 | 60 | 2.17 | 69 | 68.1 | 0.82 | 5 | 41 | 54 | 0.79 | 10
1 µg/mL and 1.41 µM | 0.5 µg/mL and 0.703 µM | 0.25 µg/mL and 0.352 µM | 0.125 µg/mL and 0.176 µM | 0.25 µg/mL and 0.352 µM | COc1cc(/C=C/C(=O)/C=C(O)/C=C/c2ccc(OC(=O)[C@@H](C)NC(=O)OC(C)(C)C)c(OC)c2)ccc1OC(=O)[C@@H](C)NC(=O)OC(C)(C)C | 1.46 | 2.07 | 0.81 | 20.81 | 23.82 | 42 | 1.87 | 48 | 58.3 | 1.09 | 37 | 29 | 39 | 0.52 | 22
0.5 µg/mL and 0.496 µM | 1 µg/mL and 0.991 µM | 0.25 µg/mL and 0.248 µM | 0.125 µg/mL and 0.124 µM | 0.125 µg/mL and 0.124 µM | COc1cc(/C=C/C(=O)/C=C(O)/C=C/c2ccc(OC(=O)[C@H](Cc3c[nH]c4ccccc34)NC(=O)OCc3ccccc3)c(OC)c2)ccc1OC(=O)[C@H](Cc1c[nH]c2ccccc12)NC(=O)OCc1ccccc1 | 1.48 | 2.6 | 1.23 | 24.28 | 11.08 | 12 | 1.52 | 14 | 46.5 | 1.36 | 1 | 28 | 24 | 0.82 | 37
0.5 µg/mL and 0.524 µM | 1 µg/mL and 1.05 µM | 0.25 µg/mL and 0.262 µM | 0.5 µg/mL and 0.524 µM | 0.25 µg/mL and 0.262 µM | COc1cc(/C=C/C(=O)/C=C(O)/C=C/c2ccc(OC(=O)[C@H](C)NC(=O)OCC3c4ccccc4-c4ccccc43)c(OC)c2)ccc1OC(=O)[C@H](C)NC(=O)OCC1c2ccccc2-c2ccccc21 | 1.59 | 2.22 | 0.62 | 21.79 | 20.22 | 56 | 2.12 | 64 | 54.4 | 1.02 | 51 | 23 | 43 | 0.41 | 12
0.125 µg/mL and 0.176 µM | 0.5 µg/mL and 0.703 µM | 0.25 µg/mL and 0.352 µM | 0.25 µg/mL and 0.352 µM | 0.25 µg/mL and 0.352 µM | COc1cc(/C=C/C(=O)/C=C(O)/C=C/c2ccc(OC(=O)C(C)NC(=O)OC(C)(C)C)c(OC)c2)ccc1OC(=O)C(C)NC(=O)OC(C)(C)C (stereo not given) | 1.74 | 1.78 | 0.84 | 18.88 | 30.88 | 40 | 2.15 | 46 | 67.9 | 1.34 | 29 | 16 | 25 | 0.59 | 11
1 µg/mL and 1.47 µM | 0.5 µg/mL and 0.732 µM | 0.25 µg/mL and 0.366 µM | 0.25 µg/mL and 0.366 µM | 0.125 µg/mL and 0.183 µM | COc1cc(/C=C/C(=O)/C=C(O)/C=C/c2ccc(OC(=O)CNC(=O)OC(C)(C)C)c(OC)c2)ccc1OC(=O)CNC(=O)OC(C)(C)C | 1.16 | 2.11 | 0.73 | 18.12 | 33.65 | 48 | 1.37 | 55 | 57.4 | 1 | 47 | 44 | 44 | 0.44 | 43
0.25 µg/mL and 0.352 µM | 1 µg/mL and 1.41 µM | 1 µg/mL and 1.41 µM | 0.125 µg/mL and 0.176 µM | 0.125 µg/mL and 0.176 µM | COc1cc(/C=C/C(=O)/C=C(O)/C=C/c2ccc(OC(=O)[C@H](C)NC(=O)OC(C)(C)C)c(OC)c2)ccc1OC(=O)[C@H](C)NC(=O)OC(C)(C)C | 1.84 | 2.71 | 1.04 | 21.3 | 22.02 | 28 | 2.26 | 32 | 44.6 | 1.44 | 5 | 11 | 20 | 0.79 | 6
